Test results published in publication PMC9297976 (Journal of Applied Toxicology, 2021).

Key:
medaka Esr1 (mEsr1) [1] = molecular target: T1, medaka Esr1 (mEsr1) (Oryzias latipes, UniProt P50241); assay: cell-based; parameters: species or system Japanese medaka (Oryzias latipes); settings: MAC = 1.0 × 10^−4 M
T1 sequence (P50241 1-620): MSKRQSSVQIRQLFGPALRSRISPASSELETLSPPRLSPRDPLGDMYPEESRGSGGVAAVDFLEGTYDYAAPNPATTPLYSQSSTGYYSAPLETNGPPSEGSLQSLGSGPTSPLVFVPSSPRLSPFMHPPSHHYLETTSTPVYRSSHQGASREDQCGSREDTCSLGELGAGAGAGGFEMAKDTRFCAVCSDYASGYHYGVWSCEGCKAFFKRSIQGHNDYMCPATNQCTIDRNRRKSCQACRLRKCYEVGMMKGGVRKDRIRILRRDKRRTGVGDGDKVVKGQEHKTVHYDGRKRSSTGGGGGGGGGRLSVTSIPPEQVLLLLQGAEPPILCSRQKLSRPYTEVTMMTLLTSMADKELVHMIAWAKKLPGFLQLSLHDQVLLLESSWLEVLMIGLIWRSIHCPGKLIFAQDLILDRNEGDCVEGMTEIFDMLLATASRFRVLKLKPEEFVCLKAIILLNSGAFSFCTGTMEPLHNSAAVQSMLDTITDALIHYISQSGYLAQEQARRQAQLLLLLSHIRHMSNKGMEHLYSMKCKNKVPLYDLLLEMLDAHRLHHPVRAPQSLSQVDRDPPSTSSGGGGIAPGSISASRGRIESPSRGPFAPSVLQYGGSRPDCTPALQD

[2] = tested on: Japanese medaka (Oryzias latipes); assay: Fish Short‐Term Reproduction Assay; assay type: in vivo; settings: for GSI Female / GSI Male / HSI Male / Length Female / Length Male / Weight Female / Weight Male: completion of exposure
medaka Esr1 (mEsr1) [3] = molecular target: T1, medaka Esr1 (mEsr1); assay: Medaka Esr1 reporter gene assay, antagonist assay; assay type: cell-based, Japanese medaka (Oryzias latipes)
medaka ARβ (mArβ) [4] = molecular target: T2, medaka ARβ (mArβ) (Oryzias latipes, UniProt D1MV73); assay: Medaka ARβ reporter gene assay, agonist assay; assay type: cell-based, Japanese medaka (Oryzias latipes)
T2 sequence (D1MV73 1-744): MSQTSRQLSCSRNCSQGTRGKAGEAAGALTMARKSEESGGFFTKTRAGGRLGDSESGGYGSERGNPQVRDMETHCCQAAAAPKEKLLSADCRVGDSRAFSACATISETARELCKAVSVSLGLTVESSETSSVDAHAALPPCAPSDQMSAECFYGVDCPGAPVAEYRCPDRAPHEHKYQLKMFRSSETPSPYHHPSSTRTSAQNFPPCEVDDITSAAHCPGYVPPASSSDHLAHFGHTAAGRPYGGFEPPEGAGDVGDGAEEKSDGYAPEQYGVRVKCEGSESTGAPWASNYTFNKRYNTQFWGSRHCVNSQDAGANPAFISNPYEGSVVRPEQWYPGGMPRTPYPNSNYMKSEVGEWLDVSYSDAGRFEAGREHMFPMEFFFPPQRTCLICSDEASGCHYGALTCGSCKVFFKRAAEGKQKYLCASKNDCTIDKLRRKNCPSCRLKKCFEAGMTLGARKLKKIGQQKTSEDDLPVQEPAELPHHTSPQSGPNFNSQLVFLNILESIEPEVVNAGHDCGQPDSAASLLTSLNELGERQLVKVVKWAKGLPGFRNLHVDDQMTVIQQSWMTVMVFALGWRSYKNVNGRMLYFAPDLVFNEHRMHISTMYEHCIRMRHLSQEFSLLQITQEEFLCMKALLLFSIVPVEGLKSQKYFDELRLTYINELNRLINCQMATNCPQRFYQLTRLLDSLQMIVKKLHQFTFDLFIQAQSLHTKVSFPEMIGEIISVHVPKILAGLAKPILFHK

medaka ARβ (mArβ) [5] = molecular target: T2, medaka ARβ (mArβ); assay: Medaka ARβ reporter gene assay, antagonist assay; assay type: cell-based, Japanese medaka (Oryzias latipes); settings: 11‐KT spiked at 50 nM (D); MAC = 3.2 × 10^−5 M
[6] = 18.5 mg/L measured, 21 d, sig. ↑ vs control
[7] = measured concentration 2.25 mg/L
[8] = measured concentration 4.76 mg/L
[9] = measured concentration 8.72 mg/L
[10] = measured concentration 18.5 mg/L

Q: For `O=C1NC(=O)C(c2ccccc2)(c2ccccc2)N1` [PHT, Phenitoin, reference compound], which Agonistic activity (medaka Esr1 (mEsr1) [1]) is on record?
A: NE (MAC = 1.0 × 10^−4 M)

Q: What about the Fertility rate ([2]; 2.25 mg/L measured, 21 d) of the same compound?
A: 92 ± 2.8%

Q: And the “Hepatic VTG, female” value ([2]; 2.25 mg/L measured, 21 d)?
A: 685 ± 110 ng/mg‐liver

Q: And the “Hepatic VTG, male” value ([2]; 2.25 mg/L measured, 21 d)?
A: 1.4 ± 0.5 ng/mg‐liver

Q: And the Mortality ([2]; 2.25 mg/L measured, 21 d)?
A: 0.0%

Q: What about the “Mortality, number of dead fish” value ([2]; 2.25 mg/L measured, 21 d) of the same compound?
A: 0

Q: And the “Number of fertilized eggs (per female per day)” value ([2]; 2.25 mg/L measured, 21 d)?
A: 18 ± 4.3

Q: What about the “Number of total eggs (per female per day)” value ([2]; 2.25 mg/L measured, 21 d) of the same compound?
A: 20 ± 5.0

Q: What about the “SSC female (joint plates with papillary processes)” value (“SSC female” below) ([2]; 2.25 mg/L measured, 21 d) of the same compound?
A: 0 ± 0

Q: And the “SSC male (joint plates with papillary processes)” value (“SSC male” for short) ([2]; 2.25 mg/L measured, 21 d)?
A: 95 ± 14

Q: And the “Abnormal behavior (in words)” value ([2]; 4.76 mg/L and above)?
A: fish frequently showed abnormal behavior such as loss of balance

Q: And the Fertility rate ([2]; 4.76 mg/L measured, 21 d)?
A: 86 ± 9.3%

Q: And the “Hepatic VTG, female” value ([2]; 4.76 mg/L measured, 21 d)?
A: 1,013 ± 183 ng/mg‐liver

Q: And the “Hepatic VTG, male” value ([2]; 4.76 mg/L measured, 21 d)?
A: 4.2 ± 6.7 ng/mg‐liver

Q: What about the Mortality ([2]; 4.76 mg/L measured, 21 d) of the same compound?
A: 0.0%

Q: And the “Mortality, number of dead fish” value ([2]; 4.76 mg/L measured, 21 d)?
A: 0

Q: What about the “Number of fertilized eggs (per female per day)” value ([2]; 4.76 mg/L measured, 21 d) of the same compound?
A: 17 ± 3.2

Q: And the “Number of total eggs (per female per day)” value ([2]; 4.76 mg/L measured, 21 d)?
A: 20 ± 2.0

Q: And the “SSC female” value ([2]; 4.76 mg/L measured, 21 d)?
A: 0 ± 0

Q: What about the “Hepatic VTG, female” value ([2]; 8.72 mg/L measured, 21 d) of the same compound?
A: 661 ± 199 ng/mg‐liver

Q: And the “Hepatic VTG, male” value ([2]; 8.72 mg/L measured, 21 d)?
A: 1.0 ± 0.4 ng/mg‐liver

Q: And the Mortality ([2]; 8.72 mg/L measured, 21 d)?
A: 4.2%

Q: What about the “Mortality, number of dead fish” value ([2]; 8.72 mg/L measured, 21 d) of the same compound?
A: 1

Q: What about the “SSC female” value ([2]; 8.72 mg/L measured, 21 d) of the same compound?
A: 0 ± 0

Q: What about the “SSC male” value ([2]; 8.72 mg/L measured, 21 d) of the same compound?
A: 99 ± 21

Q: What about the Fertility rate ([2]; 8.72 mg/L measured, 21 d, sig. ↓ vs control) of the same compound?
A: 49 ± 12%

Q: What about the “Hepatic VTG, female” value ([2]; 18.5 mg/L measured, 21 d) of the same compound?
A: 693 ± 243 ng/mg‐liver

Q: And the “Hepatic VTG, male” value ([2]; 18.5 mg/L measured, 21 d)?
A: 1.4 ± 0.9 ng/mg‐liver

Q: What about the “SSC female” value ([2]; 18.5 mg/L measured, 21 d) of the same compound?
A: 0 ± 0

Q: What about the “SSC male” value ([2]; 18.5 mg/L measured, 21 d) of the same compound?
A: 85 ± 15

Q: And the Mortality [2, 6]?
A: 33%

Q: And the “Mortality, number of dead fish” value [2, 6]?
A: 8

Q: What about the Fertility rate ([2]; 18.5 mg/L measured, 21 d, sig. ↓ vs control) of the same compound?
A: 18 ± 4.1%

Q: What about the “Change of hepatic VTG levels in females (in words)” value ([2]; 21 d) of the same compound?
A: did not reduce

Q: And the “Fecundity, number of total eggs (in words)” value ([2]; 21 d)?
A: statistically significant decrease

Q: What about the LOECmVTG ([2]; LOEC on VTG induction in males) of the same compound?
A: ND (>18,500) μg/L

Q: And the LOECREPRO ([2]; LOEC on reproduction (fecundity and/or fertility))?
A: 8,720 μg/L

Q: And the LOECTOX ([2]; lowest observed effect concentration on mortality)?
A: 4,760 μg/L

Q: And the “GSI Female” value [2, 7]?
A: 8.3 ± 0.8%

Q: What about the “GSI Male” value [2, 7] of the same compound?
A: 1.32 ± 0.77%

Q: And the “HSI Male” value [2, 7]?
A: 1.4 ± 0.36%

Q: And the “Length Female” value [2, 7]?
A: 35.9 ± 0.4 mm

Q: And the “Length Male” value [2, 7]?
A: 35.9 ± 0.6 mm

Q: What about the “Weight Female” value [2, 7] of the same compound?
A: 466 ± 26 mg

Q: And the “Weight Male” value [2, 7]?
A: 435 ± 26 mg

Q: What about the “GSI Female” value [2, 8] of the same compound?
A: 9.0 ± 1.4%

Q: And the “GSI Male” value [2, 8]?
A: 1.00 ± 0.26%

Q: And the “HSI Male” value [2, 8]?
A: 1.6 ± 0.35%

Q: And the “Length Female” value [2, 8]?
A: 35.5 ± 1.0 mm

Q: And the “Length Male” value [2, 8]?
A: 36.5 ± 1.5 mm

Q: And the “Weight Female” value [2, 8]?
A: 463 ± 10 mg

Q: What about the “Weight Male” value [2, 8] of the same compound?
A: 435 ± 63 mg

Q: What about the “GSI Female” value [2, 9] of the same compound?
A: 19.3 ± 10%

Q: And the “GSI Male” value [2, 9]?
A: 1.04 ± 0.31%

Q: And the “HSI Male” value [2, 9]?
A: 2.2 ± 0.30%

Q: What about the “Length Female” value [2, 9] of the same compound?
A: 36.0 ± 0.5 mm

Q: What about the “Length Male” value [2, 9] of the same compound?
A: 36.5 ± 0.1 mm

Q: And the “Weight Female” value [2, 9]?
A: 576 ± 28 mg

Q: What about the “Weight Male” value [2, 9] of the same compound?
A: 415 ± 31 mg

Q: And the “GSI Female” value [2, 10]?
A: 17.0 ± 9.7%

Q: And the “GSI Male” value [2, 10]?
A: 0.44 ± 0.26%

Q: And the “HSI Male” value [2, 10]?
A: 3.4 ± 0.47%

Q: What about the “Length Female” value [2, 10] of the same compound?
A: 37.5 ± 1.4 mm

Q: What about the “Length Male” value [2, 10] of the same compound?
A: 38.4 ± 1.4 mm

Q: And the “Weight Female” value [2, 10]?
A: 609 ± 67 mg

Q: What about the “Weight Male” value [2, 10] of the same compound?
A: 507 ± 83 mg

Q: What about the “Antagonistic activity on mEsr1 (in words)” value (medaka Esr1 (mEsr1) [3]; antagonist assays) of the same compound?
A: inhibited the transcriptional activity on mEsr1 by E2

Q: What about the “In vitro positive: aEsr” value (medaka Esr1 (mEsr1) [3]; mode of action in which IC50 or IC30 was obtained in RGA) of the same compound?
A: aEsr

Q: And the IC50 (medaka Esr1 (mEsr1) [3]; read-out: Antagonistic activity IC50, E2 spiked at 0.2 nM (A))?
A: 2100 nM

Q: What about the Agonistic activity (medaka ARβ (mArβ) [4]; MAC = 1.0 × 10^−4 M) of the same compound?
A: NE (MAC = 1.0 × 10^−4 M)

Q: And the Antagonistic activity (medaka ARβ (mArβ) [5])?
A: NE (MAC = 3.2 × 10^−5 M)^(D)

Q: How did the EC50 (medaka ARβ (mArβ) [4]; read-out: Agonistic activity EC50, geometric mean, positive control, n = 5) turn out when `C[C@]12CC(=O)[C@H]3[C@@H](CCC4=CC(=O)CC[C@@]43C)[C@@H]1CC[C@@H]2O` [Chemical 11KT, 11‐ketotestosterone, reference compound] was run?
A: 5.8 nM
